Patent US20240383882A1 (Ecstasy LLC, priority 2020, published 2024)
Counter-ions that a name gives are not always drawn.

system: male C57BL/6 mice; experiment: 55° C. warm-water tail-flick test (antinociception); type: in vivo; conditions: Mus musculus, sc, 0.5 h, compounds of Table I; s.c.; 30 min; 55° C. water; configuration tested as in Table II; read-out: ED50 (mg/kg) at 30 min on C57BL/6 mice in Warm-water Tail-flick Test
In short: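 Subcutaneous dosing, then tail immersion in 55° C water at 30–120 min; latency normalized as 100×(test−control)/(20−control), using a 20 s cutoff, after excluding mice not responding within 2 s at baseline. Values expressed as ED50 (mg/kg).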

SMILES	ED50 [mg/kg]
CCOCC1(CCn2cnc3cnccc32)CCN(C(C)(C)c2ccc(C)nc2)C1 (centres unmarked) [Compound 91, 1-(2-(3-(ethoxymethyl)-1-(2-(6-methylpyridin-3-yl)propan-2-yl)pyrrolidin-3-yl)ethyl)-1H-imidazo[4,5-c]pyridine citrate]	≤ 30
CCOCC1(CCn2c(=O)[nH]c3cnccc32)CCN(C(C)(C)c2ccc(C)nc2)C1 (centres unmarked) [Compound 92, 1-(2-(3-(ethoxymethyl)-1-(2-(6-methylpyridin-3-yl)propan-2-yl)pyrrolidin-3-yl)ethyl)-1,3-dihydro-2H-imidazo[4,5-c]pyridin-2-one citrate]	≤ 30
CCOCC1(CCn2c(=O)n(CC(C)C)c3cc(F)c(F)cc32)CCN(C(C)(C)c2ccc(C)nc2)C1 (centres unmarked) [Compound 100]	≤ 30

same assay, conditions: Mus musculus; half maximal effective dose in mice; using one of: warm water tail-flick test, spared nerve injury, chronic constriction injury, or Complete Freund's adjuvant induced inflammatory pain (not stated which per compound); read-out: Biological Activity (ED50)

SMILES	ED50 [mg/kg]
CC(C)(c1ccccn1)N1CC[C@@](CCc2ccc(C#N)cc2)(C(=O)C(F)(F)F)C1 [Compound 100, (R)-4-(2-(1-(2-(pyridin-2-yl)propan-2-yl)-3-(2,2,2-trifluoroacetyl)pyrrolidin-3-yl)ethyl) benzonitrile]	> 50
CC(C)(c1ccccn1)N1CC[C@@](CCc2ccc(C#N)c(F)c2)(C(=O)C(F)(F)F)C1 [Compound 105, (R)-2-fluoro-4-(2-(1-(2-(pyridin-2-yl)propan-2-yl)-3-(2,2,2-trifluoroacetyl)pyrrolidin-3-yl)ethyl) benzonitrile]	> 50
CC(C)(c1ccccn1)N1CC[C@@](CCc2ccc(C#N)cc2)(c2ncc[nH]2)C1 [Compound 107, (R)-4-(2-(3-(1H-imidazol-2-yl)-1-(2-(pyridin-2-yl)propan-2-yl)pyrrolidin-3-yl)ethyl) benzonitrile]	> 50
CC(C)(c1ccccn1)N1CC[C@@](CCc2ccc(C#N)cc2)(c2ncc(C(F)(F)F)[nH]2)C1 [Compound 108, (R)-4-(2-(1-(2-(pyridin-2-yl)propan-2-yl)-3-(5-(trifluoromethyl)-1H-imidazol-2-yl)pyrrolidin-3-yl)ethyl) benzonitrile]	> 50
CC(C)(c1ccccn1)N1CC[C@@](CCc2ccc(C#N)cc2F)(COCc2ccccc2)C1 [Compound 109, (R)-4-(2-(3-((benzyloxy)methyl)-1-(2-(pyridin-2-yl)propan-2-yl)pyrrolidin-3-yl)ethyl)-3-fluorobenzonitrile]	> 50
CC(C)(c1ccccn1)N1CC[C@](CO)(CCc2ccc(C#N)c(F)c2)C1 [Compound 110, (R)-2-fluoro-4-(2-(3-(hydroxymethyl)-1-(2-(pyridin-2-yl)propan-2-yl)pyrrolidin-3-yl)ethyl) benzonitrile]	≤ 30
CC(C)(c1ccccn1)N1CC[C@](CO)(CCc2ccc(C#N)cc2F)C1 [Compound 111, (R)-3-fluoro-4-(2-(3-(hydroxymethyl)-1-(2-(pyridin-2-yl)propan-2-yl)pyrrolidin-3-yl)ethyl) benzonitrile]	> 50
CC(C)(c1ccccn1)N1CC[C@@](CCc2ccc(C#N)c(F)c2)(COCc2ccccc2)C1 [Compound 112, (R)-4-(2-(3-((benzyloxy)methyl)-1-(2-(pyridin-2-yl)propan-2-yl)pyrrolidin-3-yl)ethyl)-2-fluorobenzonitrile]	> 50
CC(C)(c1ccccn1)N1CC[C@@](CCc2ccc(C#N)cn2)(COCc2ccccc2)C1 [Compound 113, (R)-6-(2-(3-((benzyloxy)methyl)-1-(2-(pyridin-2-yl)propan-2-yl)pyrrolidin-3-yl)ethyl) nicotinonitrile]	> 50
CC(C)(c1ccccn1)N1CC[C@](CO)(CCc2ccc(C#N)cn2)C1 [Compound 114, (R)-6-(2-(3-(hydroxymethyl)-1-(2-(pyridin-2-yl)propan-2-yl)pyrrolidin-3-yl)ethyl) nicotinonitrile]	> 50
CC(C)(c1ccccn1)N1CC[C@](CN)(CCc2ccc(C#N)cc2)C1 [Compound 115, (S)-4-(2-(3-(aminomethyl)-1-(2-(pyridin-2-yl)propan-2-yl)pyrrolidin-3-yl)ethyl) benzonitrile]	> 50
